Laboratory results as given in patent publication US20240335447A1, “WEE1 INHIBITOR FOR CANCER” (Recurium IP Holdings, LLC, priority 2021, published 2024).

Columns and labels:
H358 cells = test: CellTiter-Glo (CTG) cell viability assay, H358 cells; format: cell-based; details: Homo sapiens, NCI-H358, 72 h, sotorasib 10 nM, Compound (A) 300 nM, single agent or combination of both
Experimental: (§1) 20,000 H23 cells were incubated in a 96 well plate as a triplicate with 40 nM of sotorasib or 120 nM of Compound (A) as a single agent or the combination of both for 72 h (FIG. 2). 20,000 MiaPaca-2 cells were incubated in a 96 well plate as a triplicate with 350 nM of sotorasib or 1000 nM of Compound (A) as a single agent or the combination of both for 72 h (FIG. 3). 20,000 H358 cells were incubated in a 96 well plate as a triplicate with 10 nM of sotorasib or 300 nM of Compound (A) as a single agent or the combination of both for 72 h (FIG. 4). 20,000 SW837 cells were incubated in a 96 well plate as a triplicate with 12 nM of sotorasib or 1000 nM of Compound (A) as a single agent or the combination of both for 72 h (FIG. 5). For each cell line, the cell viability was assessed using a CellTiter-Glo® (CTG) assay.

SW1463 cells = test: SW1463 subcutaneous xenograft, tumor growth; format: in vivo, Mice; details: Compound (A) 80 mg/kg p.o. qd x21, sotorasib 30 mg/kg p.o.
Experimental: Mice were inoculated with SW1463 cells subcutaneously on the right flank with the single cell suspension of 95% viable tumor cells (1×10^7) in 100 μL L-15 Matrigel mixture (1:1 ratio) without serum for the tumor development. The treatment was started when the mean tumor size reached approximately 200 mm^3 (with individual tumor range between 180-220 mm^3). Animals were randomly distributed into treatment groups of 8 animals each and dosed with vehicle (top line indicated with circles) and indicated compounds at indicated dosage and frequency shown in FIG. 11 and Table 10. In FIG. 11, single agent activity was shown with Compound (A) and sotorasib at the indicated doses, and the bottom line is Compound (A) 80 mg/kg p.o. qd×21+sotorasib 30 mg/kg p.o. pd×21.
Tumor volumes were evaluated twice per week to calculate tumor volume over time, and mice were weighed twice per week as a surrogate for signs of toxicity. Tumor growth inhibition (TGI) was calculated using the following equation TGI=(1−(Td−T0)/(Cd−C0))×100%. Td and Cd are the mean tumor volumes of the treated and control animals, and T0 and C0 are the mean tumor volumes of the treated and control animals at the start of the experiment. The tumor regression was defined as (1−(Td/T0))×100% tumor volume (TV) decrease (Td terminal TV divided by T0 initial TV). […]

H23 cells = test: CellTiter-Glo (CTG) cell viability assay, H23 cells; format: cell-based; details: Homo sapiens, NCI-H23, 72 h, sotorasib 40 nM, Compound (A) 120 nM, single agent or combination of both
Experimental: as §1

SW837 cells [1] = test: SW837 subcutaneous xenograft, tumor growth; format: in vivo, Mice; details: Compound (A) 60 mg/kg p.o. qd x18, sotorasib 30 mg/kg p.o.
Experimental: Mice were inoculated with SW837 cells subcutaneously on the right flank with the single cell suspension of 95% viable tumor cells (1×10^7) in 100 μL L-15 Matrigel mixture (1:1 ratio) without serum for the tumor development. The treatment was started when the mean tumor size reached approximately 200 mm^3 (with individual tumor range between 180-220 mm^3). Animals were randomly distributed into treatment groups of 8 animals each and dosed with vehicle (top line indicated with circles) and indicated compounds at indicated dosage and frequency shown in FIG. 6 and Table 3. In FIG. 6, single agent activity was shown with Compound (A) and sotorasib at the indicated doses. In addition, the bottom line is Compound (A) 60 mg/kg p.o. qd×18+sotorasib 30 mg/kg p.o. pd×18. […] Tumor volumes were evaluated twice per week to calculate tumor volume over time, and mice were weighed twice per week as a surrogate for signs of toxicity. Tumor growth inhibition (TGI) was calculated using the following equation TGI=(1−(Td−T0)/(Cd−C0))×100%. Td and Cd are the mean tumor volumes of the treated and control animals, and T0 and C0 are the mean tumor volumes of the treated and control animals at the start of the experiment. The tumor regression was defined as (1−(Td/T0))×100% tumor volume (TV) decrease (Td terminal TV divided by T0 initial TV). […]

MiaPaca-2 cells [2] = test: MiaPaca-2 subcutaneous xenograft, tumor growth; format: in vivo, Mice; details: MiaPaca-2 xenograft, Compound (A) 80 mg/kg p.o. qd x21, sotorasib 10 mg/kg or MRTX849 10 mg/kg p.o.
Experimental: Tumor volumes were evaluated twice per week to calculate tumor volume over time, and mice were weighed twice per week as a surrogate for signs of toxicity. Tumor growth inhibition (TGI) was calculated using the following equation TGI=(1−(Td−T0)/(Cd−C0))×100%. Td and Cd are the mean tumor volumes of the treated and control animals, and T0 and C0 are the mean tumor volumes of the treated and control animals at the start of the experiment.

SW1116 tumor cells = test: colorectal cancer SW1116 xenograft model (TP53 mutant; KRAS mutant); format: in vivo
Experimental: The antitumor activity of Compound (A) was assessed using the colorectal cancer SW1116 xenograft model (TP53 mutant; KRAS mutant) with NOD/SCID nude mice. Each mouse was inoculated on the right flank subcutaneously with 1×10^7 (+High Concentration Matrigel)/200 μL SW1116 tumor cells for the tumor development. When the mean tumor size reached 229 mm^3, animals were randomized into 4 groups (10 animals/group), and the treatments were initiated according to Table 6.
(§2) Study endpoints included daily body weight, clinical observations and tumor volume.

SW837 cells [3] = test: CellTiter-Glo (CTG) cell viability assay, SW837 cells; format: cell-based; details: Homo sapiens, 72 h, sotorasib 12 nM, Compound (A) 1000 nM, single agent or combination of both
Experimental: as §1

MiaPaca-2 cells [4] = test: CellTiter-Glo (CTG) cell viability assay, MiaPaca-2 cells; format: cell-based; details: Homo sapiens, MIA PaCa-2, 72 h, sotorasib 350 nM, Compound (A) 1000 nM, single agent or combination of both
Experimental: as §1

LoVo tumor cells = test: colorectal cancer LoVo xenograft model (KRAS mutant); format: in vivo, BALB/c nude mice
Experimental: The antitumor activity of Compound (A) was assessed using the colorectal cancer LoVo xenograft model (KRAS mutant) with BALB/c nude mice. Each mouse was inoculated on the right flank subcutaneously with 5×10^6/100 μL LoVo tumor cells for the tumor development. When the mean tumor size reached 207 mm^3, animals were randomized into 4 groups (10 animals/group), and the treatments were initiated according to Table 4.
as §2

SMILES	inhibition at 0.3 µM (H358 cells) [%]	TGI % (DAY 21) (SW1463 cells) [%]	inhibition at 0.12 µM (H23 cells) [%]	TGI % (DAY 18) (SW837 cells [1]) [%]	TGI % (DAY 21) (MiaPaca-2 cells [2]) [%]	TGI (%) (SW1116 tumor cells; 40 mg/kg/day p.o. qd x 28)	TGI (%) (SW1116 tumor cells; 60 mg/kg/day p.o. qd x 28)	TGI (%) (SW1116 tumor cells; 80 mg/kg/day p.o. qd x 28)	tolerability (SW1116 tumor cells; 40, 60, 80 mg/kg/day)	inhibition at 1 µM (SW837 cells [3]) [%]	inhibition at 1 µM (MiaPaca-2 cells [4]) [%]	TGI (%) (LoVo tumor cells; 40 mg/kg/day p.o. qd x 28)	TGI (%) (LoVo tumor cells; 60 mg/kg/day p.o. qd x 28)	TGI (%) (LoVo tumor cells; 80 mg/kg/day p.o. qd x 28)	mean body weights (LoVo tumor cells; 40, 60, 80 mg/kg/day)	clinical observations (LoVo tumor cells; any dose group (40, 60, 80 mg/kg/day))	inhibition at 0.01 µM (H358 cells) [%]	inhibition at 0.04 µM (H23 cells) [%]	inhibition at 0.012 µM (SW837 cells [3]) [%]	inhibition at 0.35 µM (MiaPaca-2 cells [4]) [%]
C=CCn1c(=O)c2cnc(Nc3ccc(N4CCN(C)CC4)cc3)nc2n1-c1ccc2c(n1)[C@@](O)(CC)CC2 [Compound (A)]	31.5	57	16.5	72	50	49.0	75.1	98.5	generally well tolerated for the majority of study animals	28.8	47	21.4	32.1	70.3	no significant impact of treatments on mean body weights	no adverse clinical observations	–	–	–	–
C=CC(=O)N1CCN(c2nc(=O)n(-c3c(C)ccnc3C(C)C)c3nc(-c4c(O)cccc4F)c(F)cc23)[C@@H](C)C1 [sotorasib, reference compound]	–	73	–	80	81	–	–	–	–	–	–	–	–	–	–	–	24	27.8	20.7	39
